“And” between values parts separate entries of the source, which are not always exact repeats. Equal values may be shown once. Read-outs that look alike come from different tables or passages of the source. Marks after values point to notes of the source that are not given here.
Legend:
[1] = Kinetic solubility by nephelometry; assay type: physicochemical; details: for sol6.5 / sol2.0: kinetic solubility, 1% DMSO, 30 min; for sol6.5: pH 6.5 phosphate buffer; for sol2.0: 0.01 M HCl (approx. pH 2.0)
S. mansoni = details: adult infection, mice, single 400 mg/kg oral dose, cited from earlier work
[2] = test system: juvenile stage of S. mansoni; details: mice, single 200 mg/kg oral dose; cited from earlier work
[3] = In vitro metabolic stability in human liver microsomes; assay type: in vitro ADME; details: for h CLint: 37 °C, 0.4 mg/mL protein, NADPH
[4] = In vitro metabolic stability in mouse liver microsomes; assay type: in vitro ADME; details: for m CLint: 37 °C, 0.4 mg/mL protein, NADPH
[5] = test system: foreskin fibroblast (HFF); experiment: Cytotoxicity screen; assay type: cell-based, human; details: 24 h, Alamar blue, data not shown
osteosarcoma (U-2 OS) = experiment: Cytotoxicity screen; assay type: cell-based, human; details: 24 h, Alamar blue, data not shown
kidney (HEK 293T) = experiment: Cytotoxicity screen; assay type: cell-based, human; details: 24 h, Alamar blue, data not shown
hepatocyte (HC-04) = experiment: Cytotoxicity screen; assay type: cell-based, human; details: HC-04, 24 h, Alamar blue; data not shown

| Structure (SMILES) | sol6.5 [1] | sol2.0 [1] | h CLint [3] | m CLint [4] | further results |
| --- | --- | --- | --- | --- | --- |
| O=C(O)COc1ccc([C@H]2CC[C@]3(CC2)OOC2(O3)C3CC4CC(C3)CC2C4)cc1 (stereo partly shown) [Compound 2] | 6.3 to 12.5 µg/mL |  |  |  | S. mansoni WBR (%) 1 × 400 mg/kg po (S. mansoni; 400 mg/kg): 80^i,j %; S. mansoni WBR (%) 1 × 200 mg/kg po [2]: 100^a % |
| O=C(O)c1ccc([C@H]2CC[C@]3(CC2)OOC2(O3)C3CC4CC(C3)CC2C4)cc1 (stereo partly shown) [Compound 3] |  |  |  |  | S. mansoni WBR (%) 1 × 400 mg/kg po (S. mansoni): 74^i,j %; S. mansoni WBR (%) 1 × 200 mg/kg po [2]: 100% and 84^a % |
| O=C(O)c1cccc([C@H]2CC[C@]3(CC2)OOC2(O3)C3CC4CC(C3)CC2C4)c1 (stereo partly shown) [Compound 4] | <1.6/<1.6 μg/mL | <1.6/<1.6 μg/mL | 12 μL/(min mg) protein | 30 μL/(min mg) protein |  |
| O=C(O)c1cc([C@H]2CC[C@]3(CC2)OOC2(O3)C3CC4CC(C3)CC2C4)ccc1O (stereo partly shown) [Compound 5, 5-(Dispiro[adamantane-2,3′ -[1,2,4]trioxolane-5′,1″-cyclohexan]-4″-yl)-2-hydroxybenzoic acid] |  |  | 108 μL/(min mg) protein | 20 μL/(min mg) protein |  |
| O=C(O)COc1ccc([C@H]2CC[C@]3(CC2)OOC2(O3)C3CC4CC(C3)CC2C4)cc1C(=O)O (stereo partly drawn) [Compound 6, cis-Adamantane-2-spiro-3′−8′-[3-carboxy-4-(carboxymethoxy)-phenyl]-1′,2′,4′-trioxaspiro[4.5]decane] |  |  | < 7 μL/(min mg) protein | 8 μL/(min mg) protein |  |
| O=C(O)COc1ccc([C@H]2CC[C@]3(CC2)OOC2(O3)C3CC4CC(C3)CC2C4)cc1Cl (stereo partly drawn) [Compound 7, cis-Adamantane-2-spiro-3 ′−8 ′-[3-chloro-4-(carboxymethoxy)-phenyl]-1′,2′,4′-trioxaspiro[4.5]decan] | 3.1 to 6.3 µg/mL |  | < 7 μL/(min mg) protein | 8 μL/(min mg) protein | cytotoxicity: concentration without inhibition of the cell line [5]: > 50 µM; cytotoxicity: concentration without inhibition of the cell line (osteosarcoma (U-2 OS)): > 50 µM; cytotoxicity: concentration without inhibition of the cell line (kidney (HEK 293T)): > 50 µM; cytotoxicity: concentration without inhibition of the cell line (hepatocyte (HC-04)): > 50 µM |
| O=C(O)COc1c(Cl)cc([C@H]2CC[C@]3(CC2)OOC2(O3)C3CC4CC(C3)CC2C4)cc1Cl (stereo partly drawn) [Compound 8, cis-Adamantane-2-spiro-3′ −8′-[3,5-dichloro-4-(carboxymethoxy)phenyl]-1′,2′,4′-trioxaspiro[4.5]decan] | 3.1 to 6.3 µg/mL |  |  |  |  |
| O=C(O)CCCOc1ccc([C@H]2CC[C@]3(CC2)OOC2(O3)C3CC4CC(C3)CC2C4)cc1 (stereo partly drawn) [Compound 9, cis-Adamantane-2-spiro-3′−8′-[4-(carboxypropoxy)-phenyl]-1′,2′,4′-trioxaspiro[4.5]decane] |  |  | < 7 μL/(min mg) protein | 8 μL/(min mg) protein |  |
| O=C(O)CCCCOc1ccc([C@H]2CC[C@]3(CC2)OOC2(O3)C3CC4CC(C3)CC2C4)cc1 (stereo partly drawn) [Compound 10, cis-Adamantane-2-spiro-3′−8′-[4-(carboxybutoxy)phenyl]-1′,2′,4′-trioxaspiro[4.5]decan] | <1.6/<1.6 μg/mL | <1.6/<1.6 μg/mL | < 7 μL/(min mg) protein | 13 μL/(min mg) protein |  |
| CC(C)(Oc1ccc([C@H]2CC[C@]3(CC2)OOC2(O3)C3CC4CC(C3)CC2C4)cc1)C(=O)O (stereo partly shown) [Compound 11] | 3.1 to 6.3 µg/mL |  | <7/7 μL/(min mg) protein | <7/7 μL/(min mg) protein |  |
| CCOC(=O)COc1ccc([C@H]2CC[C@]3(CC2)OOC2(O3)C3CC4CC(C3)CC2C4)cc1 (stereo partly shown) [Compound 12] |  |  |  |  | conversion to 2 in human liver microsomes [3]: rapidly converted to 2; conversion to 2 in mouse liver microsomes [4]: rapidly converted to 2 |
| CS(=O)(=O)NC(=O)COc1ccc([C@H]2CC[C@]3(CC2)OOC2(O3)C3CC4CC(C3)CC2C4)cc1 (stereo partly drawn) [Compound 13, cis-Adamantane-2-spiro-3′−8′-[4-[2-[methylsulfonamino]-2-oxoethoxy]phenyl]-1′,2′,4′-trioxaspiro[4.5]decane] | 6.3 to 12.5 µg/mL |  | < 7 μL/(min mg) protein | 12 μL/(min mg) protein |  |
| O=C(O)CNC(=O)COc1ccc([C@H]2CC[C@]3(CC2)OOC2(O3)C3CC4CC(C3)CC2C4)cc1 (stereo partly drawn) [Compound 14, cis-Adamantane-2-spiro-3′−8′-[4-[2-[(carboxymethyl)amino]-2-oxoethoxy]phenyl]-1′,2′,4′-trioxaspiro[4.5]decane] |  | 12.5 to 25 µg/mL | <7/CND^a,b μL/(min mg) protein |  | conversion to 2 in human liver microsomes [3]: converted to 2 in human; cytotoxicity: concentration without inhibition of the cell line [5]: > 50 µM; cytotoxicity: concentration without inhibition of the cell line (osteosarcoma (U-2 OS)): > 50 µM; cytotoxicity: concentration without inhibition of the cell line (kidney (HEK 293T)): > 50 µM; cytotoxicity: concentration without inhibition of the cell line (hepatocyte (HC-04)): > 50 µM |
| O=C([O-])C1CCN(CCOc2ccc([C@H]3CC[C@]4(CC3)OOC3(O4)C4CC5CC(C4)CC3C5)cc2)CC1.[Na+] (stereo partly shown) [Compound 15] | < 1.6 µg/mL | 3.1 to 6.3 µg/mL | < 7 μL/(min mg) protein | 9 μL/(min mg) protein |  |
| O=C(O)CN1CCC(Oc2ccc([C@H]3CC[C@]4(CC3)OOC3(O4)C4CC5CC(C4)CC3C5)cc2)CC1 (stereo partly shown) [Compound 16] |  |  | <7/<7 μL/(min mg) protein | <7/<7 μL/(min mg) protein | solubility ([1]; DMSO): < 1000 µg/mL; cytotoxicity: concentration without inhibition of the cell line [5]: > 50 µM; cytotoxicity: concentration without inhibition of the cell line (osteosarcoma (U-2 OS)): > 50 µM; cytotoxicity: concentration without inhibition of the cell line (kidney (HEK 293T)): > 50 µM; cytotoxicity: concentration without inhibition of the cell line (hepatocyte (HC-04)): > 50 µM |
| CS(=O)(=O)O.O=C(O)CNCc1ccc([C@H]2CC[C@]3(CC2)OOC2(O3)C3CC4CC(C3)CC2C4)cc1 (stereo partly drawn) [Compound 17, cis-Adamantane-2-spiro-3′−8′-[4-[[(carboxymethyi)amino]-methyl]phenyi]-1′,2′,4′-trioxaspiro[4.5]decane mesyiate] | < 6.3 µg/mL | < 12.5 µg/mL | < 7 μL/(min mg) protein | 10 μL/(min mg) protein | cytotoxicity: concentration without inhibition of the cell line [5]: > 50 µM; cytotoxicity: concentration without inhibition of the cell line (osteosarcoma (U-2 OS)): > 50 µM; cytotoxicity: concentration without inhibition of the cell line (kidney (HEK 293T)): > 50 µM; cytotoxicity: concentration without inhibition of the cell line (hepatocyte (HC-04)): > 50 µM |
| CS(=O)(=O)O.O=C(O)C1CN(Cc2ccc([C@H]3CC[C@]4(CC3)OOC3(O4)C4CC5CC(C4)CC3C5)cc2)C1 (stereo partly drawn) [Compound 18, cis-Adamantane-2-spiro-3′−8′-[4-((3-(carbonyi)azetidin-1-yl)-methyi)phenyi]-1′,2′,4′-trioxaspiro[4.5]decane mesyiate] | < 1.6 µg/mL | 6.3 to 12.5 µg/mL | 7 μL/(min mg) protein | 10 μL/(min mg) protein |  |
| O=C(O)COc1ccc([C@H]2CC[C@]3(CC2)OOC2(O3)C3CC4CC2CC(C3)C4(F)F)cc1 (stereo partly drawn) [Compound 19, cis-6,6-Difluoroadamantane-2-spiro-3′−8′-[4-(carboxymethoxy)-phenyl]-1′,2′,4′ -trioxaspiro[4.5]decane] | 12.5 to 25 µg/mL |  | 23 μL/(min mg) protein | 130 μL/(min mg) protein |  |
| O=C(O)COc1ccc([C@H]2CC[C@]3(CC2)OOC2(O3)C3CC4CC2CC(C3)C4=O)cc1 (stereo partly drawn) [Compound 20, cis-6-Oxoadamantane-2-spiro-3′−8′-[4-(carboxymethoxy)-phenyl]-1′,2′,4′-trioxaspiro[4.5]decane] | 50 to 100 µg/mL |  |  |  |  |
| O=C(O)COc1ccc([C@H]2CC[C@]3(CC2)OOC2(O3)C3CC4CC2CC(C3)C4O)cc1 (stereo partly drawn) [Compound 21, cis-6-Hydroxyadamantane-2-spiro-3′−8′-[4-(carboxymethoxy)-phenyl]-1′,2′,4′-trioxaspiro[4.5]decane] | 25 to 50 µg/mL |  | <7/<7 μL/(min mg) protein | <7/<7 μL/(min mg) protein |  |
| CC(=O)NC1C2CC3CC1CC(C2)C31OO[C@]2(CC[C@@H](c3ccc(OCC(=O)O)cc3)CC2)O1 (stereo partly drawn) [Compound 22, cis-6-Acetamidoadamantane-2-spiro-3′−8′-[4-(carboxymethoxy)phenyl]-1′,2′,4′-trioxaspiro[4.5]decane] | 12.5 to 25 µg/mL | 3.1 to 6.3 µg/mL | 10 μL/(min mg) protein | < 7 μL/(min mg) protein |  |
| CS(=O)(=O)O.NC1C2CC3CC1CC(C2)C31OO[C@]2(CC[C@@H](c3ccc(OCC(=O)O)cc3)CC2)O1 (stereo partly drawn) [Compound 23, cis-6-Aminoadamantane-2-spiro-3′−8′-[4-(carboxymethoxy)-phenyl]-1′,2′,4′-trioxaspiro[4.5]decane mesylate] | < 1.6 µg/mL | 6.3 to 12.5 µg/mL | 13 μL/(min mg) protein | 8 μL/(min mg) protein |  |
| CS(=O)(=O)O.O=C(O)COc1ccc([C@H]2CC[C@]3(CC2)OOC2(O3)C3CC4CC2CC(C3)N4)cc1 (stereo partly drawn) [Compound 24, cis-6-Azaadamantane-2-spiro-3′−8 ′-[4-(carboxymethoxy)-phenyl]-1′,2′,4′-trioxaspiro[4.5]decane mesylate] | < 1.6 µg/mL | 3.1 to 6.3 µg/mL | 35 μL/(min mg) protein | 27 μL/(min mg) protein |  |
| CS(=O)(=O)O.CS(=O)(=O)O.O=C(O)CNCc1ccc([C@H]2CC[C@]3(CC2)OOC2(O3)C3CC4CC2CC(C3)N4)cc1 (stereo partly drawn) [Compound 25, cis-6-Azaadamantane-2-spiro-3′−8′-[4-[[(carboxymethyl)-amino]methyl]phenyl]-1′,2′,4′-trioxaspiro[4.5]decane mesylate] | 50 to 100 µg/mL | > 100 µg/mL | <7/<7 μL/(min mg) protein | <7/<7 μL/(min mg) protein |  |
